Entries after “also recorded” stand apart in the source; their conditions may differ.
Assays:
[1] = test system: M2-10B4 (M2) marrow stromal cells; conditions: cited from earlier work
[2] = test system: C3H10T1/2 embryonic fibroblasts; conditions: cited from earlier work
rat spines = experiment: rat two-level spine model, implants in the posterolateral space, radiographs and manual palpation; assay type: in vivo; conditions: 4-week and 8-week time points
Experimental: FIG. 6 illustrates uses of a formulation of malleable implants having 20 mg of Oxy133 on each side of the implant, in accordance with the malleable implants described herein. […] A dry composition of a matrix containing Oxy133, collagen and ceramic as described herein was prepared and wetted with sterile water to be implanted in rat spines as shown in FIG. 6. The wetted matrix was cut in half with a razor blade to yield two halves. The two implants were molded into cylindrical shapes prior to insertion and were positioned bilaterally in the posterolateral space of each test subject. Each implant contained 20 mg Oxy133. Radiographs were taken roughly 10 minutes after the procedure, 4 weeks after the procedure, and 8 weeks after the procedure. […] Fusion was tested at 8-week sacrifice by manual palpation. […] A dry composition of a matrix containing Oxy133, collagen and ceramic as described herein was prepared and wetted with sterile water to be implanted in rat spines as shown in FIG. 6. The wetted matrix was cut in half with a razor blade to yield two halves. The two implants were molded into cylindrical shapes prior to insertion and were positioned bilaterally in the posterolateral space of each test subject. Each implant contained 125 mg Oxy133. Radiographs were taken roughly 10 minutes after the procedure, 4 weeks after the procedure, and 8 weeks after the procedure. […]

[3] = solubility of Oxy133 in water; assay type: physicochemical
Source text: The Oxy133 can be solubilized in a non-aqueous solvent, such as for example, ethanol and mixed into a solution or suspension. In some embodiments, the Oxy133 can be filtered by passing the Oxy133 and solvent through a filter (e.g., 0.22 microns). This will remove bacteria and other larger-size particulates out of the composition. The Oxy133 used in the composition can be micronized before it is mixed with solvents and other excipients. In various embodiments, the particle size of the Oxy133 can range from about 1 micron to 250 microns. In some embodiments, the Oxy133 can have a particle size of from about 5 microns to about 100 microns or from about 20 to 50 microns. The Oxy133 in the solution or suspension can be added to a slurry of biodegradable polymer and/or the ceramic particles, mixed and, then dried.

Mesenchymal stem cells = experiment: osteoblast differentiation of mesenchymal stem cells treated with Oxy133; assay type: cell-based
Source text: Thus, in some embodiments, a matrix comprising Oxy133 may be implanted into a spinal site with mesenchymal stem cells to induce bone growth through osteoblast differentiation. Periosteum tissue is one tissue type that is involved early during normal bone fracture repair process and can recruit various cell types (e.g., mesenchymal stem cells) and bone growth factors necessary for bone fracture repair. Thus, in some embodiments, periosteum tissue is utilized as a source of mesenchymal stem cells and/or growth factors in a demineralized bone composition.

Row | Structure (SMILES) | osteogenic differentiation [1] | osteogenic differentiation [2] | bridging bone across the transverse processes of L3-L5 (radiographs) (rat spines; each implant 20 mg Oxy133) | bridging bone across the transverse processes of L3-L5 (radiographs) (rat spines; each implant 125 mg Oxy133) | solubility in water [3] | osteoblast differentiation (Mesenchymal stem cells)
1 | CC(C)CCC[C@](C)(O)[C@H]1CC[C@H]2[C@@H]3CC=C4C[C@@H](O)CC[C@]4(C)[C@H]3CC[C@@]21C [20(S)-hydroxycholesterol] | induce osteogenic differentiation | induce osteogenic differentiation |  |  |  | 
2 | CC(C)CC[C@@H](O)[C@@H](C)[C@H]1CC[C@H]2[C@@H]3CC=C4C[C@@H](O)CC[C@]4(C)[C@H]3CC[C@]12C [22(R)-hydroxycholesterol] | induce osteogenic differentiation | induce osteogenic differentiation |  |  |  | 
3 | CC(C)CC[C@H](O)[C@@H](C)[C@H]1CC[C@H]2[C@@H]3CC=C4C[C@@H](O)CC[C@]4(C)[C@H]3CC[C@]12C [22(S)-, 22(S)-hydroxycholesterol] | induce osteogenic differentiation | induce osteogenic differentiation |  |  |  | 
4 | CCCCCC[C@](C)(O)[C@H]1CC[C@H]2[C@@H]3C[C@H](O)[C@H]4C[C@@H](O)CC[C@]4(C)[C@H]3CC[C@@]21C [Oxy133, (3S,5S,6S,8R,9S,10R, 13S, 14S,17S) 17-((S)-2-hydroxyoctan-2-yl)-10,13-dimethylhexadecahydro-1H-cyclopenta[a]phenanthrene-3,6-diol] |  |  | Bone growth in rat test subjects can be seen; also recorded: promoted bridging bone | promoted bridging bone; also recorded: Bone growth in rat test subjects can be seen | only slightly soluble or insoluble | increased osteoblast differentiation

Reference: patent US10987450B2, “Lyophilized moldable implants containing an oxysterol” (Warsaw Orthopedic, Inc., priority 2016, dated 2021)
